From patent US20150307554A1, “NTS-POLYPLEX NANOPARTICLES SYSTEM FOR GENE THERAPY OF CANCER” (priority 2011, published 2015)

How the values were obtained:
MDA-MB-231 cells = assay: Internalization of NTS-polyplex via NTSR1 endocytosis with blocking assays, MDA-MB-231; type: cell-based, human; settings: NTS 1 μM, SR48692 500 nM, sucrose 0.45 M
Protocol: (§1) The cytoplasm was stained with calcein AM (green). Cells were analyzed by confocal multi spectral imaging system TCS-SPE (Leica Mycrosystems, Wetzlar, Germany). The fluorescence was detected under the following conditions Ex/Em: 405/430 nm for the blue channel with UV light; 488/512-573 nm for the green channel with an argon laser; and 563/563-544 for the red channel with a Helium-Neon laser. We obtained 10 to 20 consecutive optical sections of 1 μm apart in the z series.

MCF7 cells = assay: Internalization of NTS-polyplex via NTSR1 endocytosis with blocking assays, MCF7; type: cell-based, human; settings: NTS 1 μM, SR48692 500 nM, sucrose 0.45 M
Protocol: as §1

Row | Compound | blocking of NTS-polyplex internalization (MDA-MB-231 cells) | blocking of NTS-polyplex internalization (MCF7 cells)
1 | COc1cccc(OC)c1-c1cc(C(=O)NC2(C(=O)O)C3CC4CC(C3)CC2C4)nn1-c1ccnc2cc(Cl)ccc12 (stereo not shown) [SR48692] | prevented the entrance of NTS-polyplex | prevented the entrance of NTS-polyplex
2 | OC[C@H]1O[C@@](CO)(O[C@H]2O[C@H](CO)[C@@H](O)[C@H](O)[C@H]2O)[C@@H](O)[C@@H]1O [sucrose] | blocked | blocked
